Some targets named below: Cytochrome P450 2D6 (Homo sapiens, UniProt P10635); Cytochrome P450 3A4 (Homo sapiens, UniProt P08684); Cytochrome P450 2C9 (Homo sapiens, UniProt P11712).
The target in assay [1] is T1, Corticotropin-releasing factor receptor 2/Corticotropin-releasing factor-binding protein (Homo sapiens, UniProt P24387+Q13324).
T1 sequence (Q13324 whole entry): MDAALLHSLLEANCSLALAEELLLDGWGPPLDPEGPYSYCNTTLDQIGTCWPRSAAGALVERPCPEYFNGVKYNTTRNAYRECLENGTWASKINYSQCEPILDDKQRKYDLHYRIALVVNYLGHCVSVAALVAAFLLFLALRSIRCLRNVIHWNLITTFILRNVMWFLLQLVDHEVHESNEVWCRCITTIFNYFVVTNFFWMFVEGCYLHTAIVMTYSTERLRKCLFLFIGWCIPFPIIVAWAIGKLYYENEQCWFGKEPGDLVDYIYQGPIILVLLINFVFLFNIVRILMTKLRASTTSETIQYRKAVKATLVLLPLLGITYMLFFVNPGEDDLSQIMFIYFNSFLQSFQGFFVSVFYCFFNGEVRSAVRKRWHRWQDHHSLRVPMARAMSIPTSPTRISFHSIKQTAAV
T1 sequence (P24387 whole entry): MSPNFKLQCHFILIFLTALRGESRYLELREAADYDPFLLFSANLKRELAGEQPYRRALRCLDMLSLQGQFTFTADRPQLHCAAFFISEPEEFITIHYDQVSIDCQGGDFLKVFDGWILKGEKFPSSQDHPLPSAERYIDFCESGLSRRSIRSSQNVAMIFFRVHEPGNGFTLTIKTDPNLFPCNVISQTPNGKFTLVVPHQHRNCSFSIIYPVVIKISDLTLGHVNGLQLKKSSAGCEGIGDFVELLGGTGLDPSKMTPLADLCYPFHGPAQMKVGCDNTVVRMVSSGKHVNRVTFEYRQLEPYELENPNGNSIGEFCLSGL
Briefly: Dose Response confirmation of uHTS hits for small molecule antagonists of the CRF-binding protein and CRF-R2 receptor complex. The class given is functional. Particulars: read-out: IC50_Mean.

For assay [2], the target named is T1, Corticotropin-releasing factor receptor 2/Corticotropin-releasing factor-binding protein. The experiment in a line: activators of CRF receptor 2 with binding protein – uHTS hits, confirmation (AID 602473). The note with it: read-out: EC50_Mean. The class given is functional.
Assay [3] can be described thus: Luminescence Cell-Based Dose Retest to Confirm Inhibitors of Cancer Stem Cells. [Related pubchem assays (depositor defined):AID2717, AID2721]. It counts as functional. Particulars: Homo sapiens.
A short description of assay [4]: inhibitors of firefly luciferase expression or activity, dose response, H4 neuroglioma cells, luminescence (AID 1990). The class given is functional, cell-based.
Assay [5] is described as follows: Luminescence Cell-Based Dose Response HTS to Identify Inhibitors of 5'UTR Stem-Loop Driven Prion Protein mRNA Translation in H4 Neuroglioblastoma Cells. [Related pubchem assays: 1827 (Project Summary), 1813 (Primary HTS)]. It counts as functional.
Assay [6] is described as follows: inhibitors of SNCA 5'UTR-driven reporter translation, confirmation, H4 neuroglioma cells, luminescence (AID 1988). It counts as functional, cell-based.
Assay [7] is described as follows: cytotoxicity toward NIH3T3 fibroblasts, dose response, counter-screen, cell-based, ATP luminescence, mouse fibroblasts (AID 2010).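 Note: cells exposed to compound for about 90 hours before reading.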 It counts as functional. (In general: A counterscreen serves to expose hits that act by an unwanted route or on another target.)
Assay [8] can be described thus: inhibitors of intracellular T. cruzi replication, confirmation, NIH3T3 host cells, beta-gal luminescence (AID 2044).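 Note: intracellular parasites grown in NIH/3T3 mouse fibroblasts as host cells; luminescent beta-galactosidase reporter signal from transgenic T. cruzi replicating inside host cells; inhibitors lower the luminescence signal.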 It counts as functional, cell-based.
Assay [9] in a line: C. albicans growth with fluconazole, confirmation, fluorescence, retest (AID 2467). It counts as functional, cell-based.
The target of a further assay is T2, Cytochrome P450 1A2 (Homo sapiens, UniProt P05177).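 Note: PubChem cytochrome P450 panel assay, CYP1A2 panel member.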
T2 sequence (P05177 whole entry): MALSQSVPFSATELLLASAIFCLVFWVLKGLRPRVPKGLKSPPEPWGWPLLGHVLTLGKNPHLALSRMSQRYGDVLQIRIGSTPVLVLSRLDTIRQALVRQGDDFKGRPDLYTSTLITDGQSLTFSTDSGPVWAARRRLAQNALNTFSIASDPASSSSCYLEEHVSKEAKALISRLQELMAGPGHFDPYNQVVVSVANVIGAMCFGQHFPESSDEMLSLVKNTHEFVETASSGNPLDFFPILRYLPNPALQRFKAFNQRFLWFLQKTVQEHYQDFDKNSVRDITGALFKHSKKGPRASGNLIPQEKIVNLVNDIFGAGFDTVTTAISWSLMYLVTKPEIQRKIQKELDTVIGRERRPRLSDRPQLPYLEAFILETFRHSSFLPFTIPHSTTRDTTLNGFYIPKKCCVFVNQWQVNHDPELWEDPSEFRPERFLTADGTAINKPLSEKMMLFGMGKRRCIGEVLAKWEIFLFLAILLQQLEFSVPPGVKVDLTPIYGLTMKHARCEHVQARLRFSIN

Assay [10] in a line: NIH-3T3 fibroblast cytotoxicity, dose response, cytotoxicity control, cell-based, fluorescence, Alamar Blue, secondary assay (AID 2327).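 Note: NIH-3T3 mouse fibroblasts cultured with fluconazole at 8 µg/mL.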 It counts as functional.
The target in assay [11] is T3, Ubiquitin-conjugating enzyme E2 N (Homo sapiens, UniProt P61088).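 Note: Dose-response confirmation in a TR-FRET assay detecting UBC13-driven polyubiquitin chain formation, inhibition measured.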
T3 sequence (P61088 whole entry): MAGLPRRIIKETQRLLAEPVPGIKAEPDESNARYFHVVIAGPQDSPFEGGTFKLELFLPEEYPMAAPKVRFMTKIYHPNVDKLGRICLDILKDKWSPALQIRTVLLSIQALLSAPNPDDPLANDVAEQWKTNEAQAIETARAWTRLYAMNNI
The class given is functional.

The source made the active and inactive calls. Cut-off read from the data, not from the text of the source, for most assays here: actives have a measured EC50 and inactives only a lower limit. Where only a bound is given, the exact number is not on record here.

Chain of Cytochrome P450 3A4 (P08684 whole entry): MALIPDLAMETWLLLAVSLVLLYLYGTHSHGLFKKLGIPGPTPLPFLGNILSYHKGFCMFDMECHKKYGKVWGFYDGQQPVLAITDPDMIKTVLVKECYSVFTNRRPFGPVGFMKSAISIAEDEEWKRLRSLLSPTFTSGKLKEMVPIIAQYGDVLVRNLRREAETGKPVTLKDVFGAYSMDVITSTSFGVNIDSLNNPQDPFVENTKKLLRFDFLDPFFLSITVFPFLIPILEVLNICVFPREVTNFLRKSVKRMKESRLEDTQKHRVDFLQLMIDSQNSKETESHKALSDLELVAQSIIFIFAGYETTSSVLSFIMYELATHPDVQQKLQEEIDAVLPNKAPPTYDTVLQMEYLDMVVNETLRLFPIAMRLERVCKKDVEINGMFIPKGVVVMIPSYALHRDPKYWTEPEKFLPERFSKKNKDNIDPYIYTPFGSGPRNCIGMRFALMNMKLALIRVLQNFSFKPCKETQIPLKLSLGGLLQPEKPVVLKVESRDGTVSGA
Chain of Cytochrome P450 2D6 (P10635 whole entry): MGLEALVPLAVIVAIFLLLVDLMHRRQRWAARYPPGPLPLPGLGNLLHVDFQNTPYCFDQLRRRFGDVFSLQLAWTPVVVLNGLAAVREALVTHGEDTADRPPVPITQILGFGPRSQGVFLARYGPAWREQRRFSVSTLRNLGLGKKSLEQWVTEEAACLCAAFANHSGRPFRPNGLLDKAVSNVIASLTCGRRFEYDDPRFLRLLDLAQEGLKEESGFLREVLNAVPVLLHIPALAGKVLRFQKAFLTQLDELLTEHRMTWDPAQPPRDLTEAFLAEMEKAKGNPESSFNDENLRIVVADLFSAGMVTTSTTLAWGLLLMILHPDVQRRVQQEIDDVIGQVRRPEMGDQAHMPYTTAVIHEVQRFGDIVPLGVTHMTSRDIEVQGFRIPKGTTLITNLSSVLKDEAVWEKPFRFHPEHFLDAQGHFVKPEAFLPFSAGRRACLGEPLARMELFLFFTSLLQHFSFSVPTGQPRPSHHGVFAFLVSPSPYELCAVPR
Chain of Cytochrome P450 2C9 (P11712 whole entry): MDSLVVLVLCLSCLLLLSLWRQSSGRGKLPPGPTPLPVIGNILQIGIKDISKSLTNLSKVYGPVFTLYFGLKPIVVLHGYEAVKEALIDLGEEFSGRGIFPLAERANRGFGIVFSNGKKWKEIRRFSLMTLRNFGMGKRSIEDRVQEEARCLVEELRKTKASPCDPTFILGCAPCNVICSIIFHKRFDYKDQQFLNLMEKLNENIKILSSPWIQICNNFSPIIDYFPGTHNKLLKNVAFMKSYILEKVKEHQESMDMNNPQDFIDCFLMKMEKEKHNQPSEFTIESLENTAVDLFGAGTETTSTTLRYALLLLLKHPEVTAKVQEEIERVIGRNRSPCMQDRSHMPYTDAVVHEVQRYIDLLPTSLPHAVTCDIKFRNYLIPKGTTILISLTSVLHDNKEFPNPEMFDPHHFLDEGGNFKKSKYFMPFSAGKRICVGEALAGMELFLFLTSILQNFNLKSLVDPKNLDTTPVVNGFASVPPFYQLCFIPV

As for `Cc1ccc(N2CCN(C(=O)CN3C(=O)c4ccccc4C3=O)CC2)cc1`, in assay [1], the IC50 was > 47.1 µM (inactive). Further, the EC50 in assay [2] is > 53 µM (inactive).

As for `O=[N+]([O-])c1ccc(Cl)c(/C=N/n2c(S)nnc2C2CCCCC2)c1`, the AC50 in [3] was 36.1 µM (active).

Regarding `CCOC(=O)C1CCCN(C(=O)CCNC(=O)Cn2ccc3ccccc3c2=O)C1` (stereo unspecified), the EC50 was > 120 µM (not active) in assay [4], 104 µM (active) in assay [5] and > 120 µM (not active) in [6].

Turning to `CCCn1c(=O)c(C(=O)NNS(=O)(=O)c2ccc(Cl)cc2)c(O)c2ccccc21`, the AC50 in assay [3] was 1.57 µM (active).

For the molecule `COc1cccc(NC(=S)C(C#N)=C2N(C)c3ccccc3N2C)c1`, the IC50 in assay [1] was > 47.1 µM (inactive). For the same molecule, the EC50 in [2] was > 53 µM (inactive).

As for `CC(C)(C)n1nc(-c2ccc(F)cc2)c2c(N)ncnc21`, the EC50 in [4] was 8.68 µM (active); in assay [7] it was 7.86 µM (active); in assay [6], 20 µM (active); in [8], 0.316 µM (active).

As to `O=C(Nc1ccc(Cl)c(S(=O)(=O)N2CCOCC2)c1)c1ccccc1-c1ccc(C(F)(F)F)cc1`, the EC50 in assay [4] is 14.5 µM (active); in assay [5] it was > 120 µM (not active); in [6] it was > 120 µM (not active).

`Cc1c(NC2=C(Cl)C(=O)N(c3ccccc3Cl)C2=O)c(=O)n(-c2ccccc2)n1C`: the IC50 in assay [1] is > 47.1 µM (inactive). Further, in assay [2], the EC50 is > 53 µM (inactive).

On to `O=Nc1c(O)n(Cc2ccc(Cl)c(Cl)c2)c2ccccc12`, for which the EC50 was 3.73 µM (active) in assay [9] and 76.8 µM (active) in assay [10]. The AC50 was 20 µM (inconclusive) at Cytochrome P450 1A2, 5.78 µM (active) in [3] and 28.2 µM (inconclusive) at Cytochrome P450 2D6.

Take `Cc1cccc(C(=O)Nc2ccc(C(=O)Nc3ccc(O)cc3)cc2)c1`: the AC50 in assay [3] is 2.09 µM (active).

`Cc1ccccc1-n1c(CSC(=N)N)nc2ccccc2c1=O`: the IC50 in assay [1] is > 47.1 µM (inactive). Moreover, the EC50 in assay [2] was > 53 µM (inactive).

For the molecule `COc1ccc(-c2cc(C)no2)cc1S(=O)(=O)N(C)c1cccc(C)c1`, the results for the EC50 in assay [9] and in assay [10] were > 38 µM (not active) and > 160 µM (inactive), respectively.

In the case of `c1cc(CNCCN2CCNCC2)ccn1`, the AC50 at Cytochrome P450 3A4 is 5.01 µM (inconclusive); on Cytochrome P450 2D6, 3.98 µM (inconclusive).

`COc1ccc(Cc2nnc(Nc3ccc(C)cc3)o2)cc1OC`: the EC50 is > 120 µM (not active) in assay [4], > 120 µM (not active) in [5] and 11.5 µM (active) in assay [6].

On to `Cc1nc(N)sc1C(=O)NN`, for which the IC50 in assay [11] is > 20 µM (inactive).

Regarding `CC(c1ccccc1)N1CCn2c(nc3cc(NS(C)(=O)=O)ccc32)C1` (stereo unspecified), the values for the EC50 in assay [9] and in assay [10] were > 38 µM (not active) and > 160 µM (inconclusive), respectively.

With `CS(=O)(=O)N1CCC2(CC1)CN(Cc1ccncc1)C2`, the values for the AC50 on Cytochrome P450 3A4 and on Cytochrome P450 2D6 were 31.6 µM (inconclusive) and 20 µM (inconclusive), respectively.

On to `N#CCC(=O)N/N=C/c1cn(Cc2cccc3ccccc23)c2ccccc12`, for which the EC50 was 14.9 µM (active) in [4], > 120 µM (not active) in assay [5] and 8.59 µM (active) in assay [6].

For `CN(C)c1ccc(/C=C(\Cl)c2nc3ccccc3s2)cc1`, the AC50 in [3] was 1.58 µM (active).

Regarding `COc1cccc(CN(C)C(=O)c2cccc(S(=O)(=O)N3CCN(c4ccccc4)CC3)c2)c1OC`, in assay [1], the IC50 was > 47.1 µM (inactive). Moreover, in assay [2], the EC50 is > 53 µM (inactive).

Take `O=C(NNc1ccc(Cl)cc1)c1cccs1`: the EC50 in [9] was > 38 µM (not active); in assay [10], 2.56 µM (inconclusive). The AC50 in assay [3] is 1.14 µM (active).

For `Cc1nc2cnc(Oc3ccccc3)nc2n(C2CC2)c1=O`, the results for the half-maximal activity concentration (AC50) on Cytochrome P450 3A4 and at Cytochrome P450 2C9 were 25.1 µM (inconclusive) and 12.6 µM (inconclusive), respectively.

For `CCOc1ccc(N/N=C(/C#N)C(N)=O)cc1`, the AC50 is 20 µM (inconclusive) on Cytochrome P450 3A4 and 15.8 µM (inconclusive) on Cytochrome P450 2C9.

Consider `Cc1cc(O)c(/C=N/Nc2ccc(F)cc2)c(=O)o1`, for which the EC50 in [10] is 9.97 µM (active).

For `CC(NCC(=O)Nc1ccccc1C(=O)NC1CC1)c1cccc(Cl)c1` (stereo unspecified), the IC50 in [1] is > 47.1 µM (inactive). In assay [2], the EC50 was > 53 µM (inactive).

On to `O=c1cnc2cnc(Oc3ccccc3)nc2n1Cc1cccs1`, for which the figures for the AC50 on Cytochrome P450 3A4 and on Cytochrome P450 2D6 were 15.8 µM (inconclusive) and 39.8 µM (inconclusive), respectively.

Take `CCCn1c(SCC#N)nc2c(c1=O)C1(CCCC1)Cc1ccccc1-2`: the AC50 in assay [3] is 1.92 µM (active).

For `O=C(CN1CCN(c2ccccc2F)CC1)Nc1nnc(C(F)(F)F)s1`, the EC50 is 0.366 µM (active) in assay [9] and > 150 µM (inactive) in assay [10].

As to `O=C(CCn1nnc2ccccc21)N1CCN(c2ccccc2)CC1`, in assay [1], the IC50 is > 47.1 µM (inactive). In [2], the EC50 is > 53 µM (inactive).

Consider `CCNc1nc(Oc2ccc(C#N)cc2)cc(C(F)(F)F)n1`, for which the EC50 in assay [4] was 5.99 µM (active); in assay [5], 16.8 µM (active); in [6] it was 11.7 µM (active).

Regarding `CCCCCCc1nnc(N)s1`, the EC50 in [4], in assay [5] and in [6] was > 120 µM (not active) in each case.

Consider `CCCn1cc(S(=O)(=O)c2ccccc2)c(=O)c2cc(OCC)ccc21`, for which the IC50 in assay [1] is > 47.1 µM (inactive). The EC50 in [2] is > 53 µM (inactive).

For the molecule `O=C(CSc1nc[nH]n1)Nc1cc(S(=O)(=O)N2CCCC2)ccc1Cl`, the IC50 in assay [1] is > 47.1 µM (inactive). In addition, the EC50 in [2] was > 53 µM (inactive).

For `CCn1c(SCC(=O)NC2CC2)nnc1-c1ccncc1`, the IC50 in [1] was > 47.1 µM (inactive). Moreover, the EC50 in assay [2] is > 53 µM (inactive).

Take `CCCCc1ccc(/C=C(\C#N)C(N)=S)s1`: the IC50 in assay [11] is > 20 µM (inactive).

Take `COc1ccc(-c2cc(C(=O)N3CC4(C)CC3CC(C)(C)C4)no2)cc1OC` (stereo unspecified): the concentration at half-maximal activity (AC50) in [3] is 1.75 µM (active).

As to `CCOC(=O)C1=C(C)NC(=O)N[C@@H]1c1coc2cc(C)cc(C)c2c1=O`, the AC50 on Cytochrome P450 1A2 was 2.51 µM (inconclusive); on Cytochrome P450 3A4, 3.98 µM (inconclusive).

With `COc1ccc(-c2oc(=O)c3cc(OC)c(OC)cc3c2C#CC2(O)CCCCC2)cc1`, the IC50 in [11] was > 20 µM (inactive).

Turning to `c1cncc(-c2cc(-c3cc(-c4cccnc4)[nH]n3)n[nH]2)c1`, the AC50 on Cytochrome P450 1A2 was 0.501 µM (inconclusive); on Cytochrome P450 3A4, 5.01 µM (inconclusive).

In the case of `COc1ccc(/C=N/OCC(=O)N2CC3(C)CC2CC(C)(C)C3)cc1` (stereo unspecified), the AC50 in assay [3] was 11.5 µM (active).

For orientation: AC50 means the midpoint of the concentration-response curve, whichever way the signal moves.

The values are drawn from ChEMBL document CHEMBL1201862, “PubChem BioAssay data set” (2004).
